Each compound was assayed against T1, EBP (Homo sapiens, UniProt Q15125) (assay: EBP Functional Assay (EBP immunoaffinity LC-MS assay)). Conditions: HEK293T cells as source of EBP enzyme; substrate zymosterol-d5, 37° C. for 4 h; percent conversion to dehydrolathosterol-d5 by LC-APCI MRM MS.
T1 construct: HEK293T cells were utilized as the source of EBP enzyme; endogenous in cells; host or cells: HEK293T
Type: biochemical
Outline: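 HEK293T cells served as EBP source; enzyme preincubated 30 min with inhibitor dilutions, then zymosterol-d5 substrate added and incubated 4 h at 37° C. Sterols extracted and quantified by LC-APCI MRM MS; percent conversion to […] fit to 4-parameter logistic for IC50. Tasin-1 reference inhibitor.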

T1 sequence (Q15125 whole entry): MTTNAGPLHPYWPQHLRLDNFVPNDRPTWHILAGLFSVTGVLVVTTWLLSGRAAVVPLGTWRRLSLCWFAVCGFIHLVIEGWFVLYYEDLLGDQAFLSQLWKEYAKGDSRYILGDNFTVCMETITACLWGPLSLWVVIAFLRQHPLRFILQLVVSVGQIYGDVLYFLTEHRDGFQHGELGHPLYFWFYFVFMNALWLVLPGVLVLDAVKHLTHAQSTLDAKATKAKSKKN

Row | Compound | IC50 [nM]
1 | COc1ncc(C)cc1S(=O)(=O)N1CCC2(CC1)CC(N1CC3(COC3)C1)CO2 (centres unmarked) [Example 117, 8-((2-methoxy-5-methylpyridin-3-yl)sulfonyl)-3-(2-oxa-6-azaspiro[3.3]heptan-6-yl)-1-oxa-8-azaspiro[4.5]decane] | 250 to 1500
2 | Cn1nc(C2CC2)cc1S(=O)(=O)N1CCC2(CC1)CC(NC1CCOCC1)C2 [Example 120, 7-((3-cyclopropyl-1-methyl-1H-pyrazol-5-yl)sulfonyl)-N-(tetrahydro-2H-pyran-4-yl)-7-azaspiro[3.5]nonan-2-amine] | < 100
3 | Cc1nc(OC(F)F)ccc1S(=O)(=O)N1CCC2(CC1)CC(N1CC3(COC3)C1)C2 [Example 121, 6-(7-((6-(difluoromethoxy)-2-methylpyridin-3-yl)sulfonyl)-7-azaspiro[3.5]nonan-2-yl)-2-oxa-6-azaspiro[3.3]heptane] | < 100
4 | Cn1nc(C(F)F)cc1S(=O)(=O)N1CCC2(CC1)CC(N1CC3(COC3)C1)C2 [Example 122, 6-(7-((3-(difluoromethyl)-1-methyl-1H-pyrazol-5-yl)sulfonyl)-7-azaspiro[3.5]nonan-2-yl)-2-oxa-6-azaspiro[3.3]heptane] | < 100
5 | O=S(=O)(c1cc(C(F)F)nn1C1CC1)N1CCC2(CC1)CC(N1CC3(COC3)C1)C2 [Example 123, 6-(7-((1-cyclopropyl-3-(difluoromethyl)-1H-pyrazol-5-yl)sulfonyl)-7-azaspiro[3.5]nonan-2-yl)-2-oxa-6-azaspiro[3.3]heptane] | < 100
6 | Cn1nc(C(F)F)cc1S(=O)(=O)N1CCC2(CCC(N3CC4(COC4)C3)C2)CC1 (centres unmarked) [Example 125, 6-(8-((3-(difluoromethyl)-1-methyl-1H-pyrazol-5-yl)sulfonyl)-8-azaspiro[4.5]decan-2-yl)-2-oxa-6-azaspiro[3.3]heptane] | < 100
7 | CC(C)Oc1ccc(S(=O)(=O)N2CCC3(CCC(N4CC5(COC5)C4)C3)CC2)cn1 (centres unmarked) [Example 130, 6-(8-((6-isopropoxypyridin-3-yl)sulfonyl)-8-azaspiro[4.5]decan-2-yl)-2-oxa-6-azaspiro[3.3]heptane] | 100 to 250
8 | O=S(=O)(c1cccc2ccnn12)N1CCC2(CCC(N3CC4(COC4)C3)C2)CC1 (centres unmarked) [Example 131, 6-(8-(pyrazolo[1,5-a]pyridin-7-ylsulfonyl)-8-azaspiro[4.5]decan-2-yl)-2-oxa-6-azaspiro[3.3]heptane] | 100 to 250

Second part, the compound after the results:

Row | IC50 [nM] | Compound
9 | < 100 | COc1cc(S(=O)(=O)N2CCC3(CCC(N4CC5(COC5)C4)C3)CC2)n(C)n1 (centres unmarked) [Example 124, 6-(8-((3-methoxy-1-methyl-1H-pyrazol-5-yl)sulfonyl)-8-azaspiro[4.5]decan-2-yl)-2-oxa-6-azaspiro[3.3]heptane]
10 | 100 to 250 | N#Cc1ccc(S(=O)(=O)N2CCC3(CCC(N4CC5(COC5)C4)C3)CC2)c(Cl)c1 (centres unmarked) [Example 126, 4-((2-(2-oxa-6-azaspiro[3.3]heptan-6-yl)-8-azaspiro[4.5]decan-8-yl)sulfonyl)-3-chlorobenzonitrile]
11 | 250 to 1500 | N#Cc1cc(S(=O)(=O)N2CCC3(CCC(N4CC5(COC5)C4)C3)CC2)ccc1F (centres unmarked) [Example 127, 5-((2-(2-oxa-6-azaspiro[3.3]heptan-6-yl)-8-azaspiro[4.5]decan-8-yl)sulfonyl)-2-fluorobenzonitrile]
12 | < 100 | Cc1ccc(S(=O)(=O)N2CCC3(CCC(N4CC5(COC5)C4)C3)CC2)cc1C#N (centres unmarked) [Example 128, 5-((2-(2-oxa-6-azaspiro[3.3]heptan-6-yl)-8-azaspiro[4.5]decan-8-yl)sulfonyl)-2-methylbenzonitrile]
13 | < 100 | COc1ccc(S(=O)(=O)N2CCC3(CCC(N4CC5(COC5)C4)C3)CC2)c(F)c1 (centres unmarked) [Example 129, 6-(8-((2-fluoro-4-methoxyphenyl)sulfonyl)-8-azaspiro[4.5]decan-2-yl)-2-oxa-6-azaspiro[3.3]heptane]
14 | < 100 | O=S(=O)(c1cnc2cccc(F)c2c1)N1CCC2(CCC(N3CC4(COC4)C3)C2)CC1 (centres unmarked) [Example 132, 6-(8-((5-fluoroquinolin-3-yl)sulfonyl)-8-azaspiro[4.5]decan-2-yl)-2-oxa-6-azaspiro[3.3]heptane]
